From paper PMC12118597 (Science Advances, 2025)
“And” between values parts separate entries of the source, which are not always exact repeats. Equal values may be shown once. Read-outs that look alike come from different tables or passages of the source.

Columns and labels:
[1] = Microsomal stability; assay type: in vitro ADME, mouse
Experimental: The assay was carried out in 96-well plates at 37°C. Reaction mixtures (25 μl) contained a final concentration of 1 μM compound, liver microsome protein (0.5 mg/ml), and 1 mM NADPH (reduced form of nicotinamide adenine dinucleotide phosphate) and/or 1 mM uridine diphosphate glucuronic acid (with alamethicin) in 100 mM potassium phosphate (pH 7.4) with 3 mM MgCl2. After 0, 15, 30, and 60 min, 150 μl of quench solution (100% acetonitrile with 0.1% formic acid) with an internal standard was transferred to each well. Reactions containing the same components, except NADPH, were prepared as the negative control.
The extent of metabolism was calculated as the disappearance of compounds compared to the 0-min time incubation.

[2] = Kinetic solubility
[3] = test system: Caco-2 cells; details: Caco-2 permeability assay, compound concentration 5
Experimental: Caco-2 cell plates were obtained commercially and were maintained for 21 days at 37°C with 5% CO2. Cells were washed with Hank’s balanced salt solution with 5 mM Hepes for 30 min before starting the experiment. Test compound solutions are prepared by diluting DMSO stock into Hank’s balanced salt solution buffer, resulting in a final DMSO concentration of 0.1%. Before the assay, cell monolayer integrity was verified by […] electrical resistance to ensure that wells have resistance above the acceptance cutoff (1 kilohm). Transport experiments were initiated by adding test compounds to the apical (75 μl) or basal (250 μl) side. Transport plates were incubated at 37°C in a humidified incubator with 5% CO2. Samples were taken from the donor and acceptor compartments after 1 hour and analyzed by liquid chromatography–tandem mass spectrometry (LC-MS/MS) using an AB Sciex API 4000 instrument coupled to a Shimadzu LC-20 AD LC Pump system. Samples were separated using a Waters Atlantis T3 dC18 reverse phase HPLC column (20 mm by 2.1 mm) at a flow rate of 0.5 ml/min. The mobile phase consisted of 0.1% formic acid in acetonitrile (solvent A) and 0.1% formic acid in water (solvent B).
Apparent permeability (Papp) values were calculated using the following equation Papp=(dQ/dt)/A/C0 where dQ/dt is the initial rate of compound transport across the cell monolayer, A is the surface area of the filter membrane, and C0 is the initial concentration of the test compound, calculated for each direction using a four-point calibration curve by LC-MS/MS.
The net flux ratio between the two directional transports was calculated by the following equation Ratio=PappB−A/PappA−B where PappB-A and PappA-B represent the apparent permeability of compounds from the basal-to-apical and apical-to-basal sides of the cellular monolayer, respectively. Recovery was calculated on the basis of the compound concentration at the end of the experiment compared to that at the beginning of the experiment, adjusted for volumes.

[4] = biological target: T1, human macrodomain Targ1 (Homo sapiens, UniProt Q9Y530); assay: HTRF peptide displacement assay, human Targ1; assay type: binding; details: HTRF binding curve, Targ1
T1 construct: Targ1_HTRF; HTRF assay; pET22b(+); His6, TEV; 1-153; made in house
T1 sequence (Q9Y530 with tags, fused parts or gaps): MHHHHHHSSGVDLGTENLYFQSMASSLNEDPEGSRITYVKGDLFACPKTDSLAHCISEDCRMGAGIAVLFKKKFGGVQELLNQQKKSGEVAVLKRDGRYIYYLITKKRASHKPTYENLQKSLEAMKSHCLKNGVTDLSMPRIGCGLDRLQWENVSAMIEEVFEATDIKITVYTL

[5] = biological target: T2, SARS-CoV-2 NSP3 macrodomain (Mac1) (Severe acute respiratory syndrome coronavirus 2, UniProt P0DTD1); assay type: binding; details: for Total number of conformations: ligand conformations modeled in the crystal structure; for 2*(1-BDC) (%): occupancy estimate from PanDDA
[6] = biological target: T2, SARS-CoV-2 NSP3 macrodomain (Mac1); assay: biochemical; assay type: binding
[7] = PanDDA background density correction factor
[8] = refined crystallographic occupancy
[9] = soak concentration 10 mM, DMSO background map
[10] = soak concentration 10 mM, P43 crystals
[11] = HTRF binding curve, SARS-CoV-2 Mac1
[12] = compound at 200 μM, mean of three to four technical replicates, read-out: % competition at 200 μM (preliminary HTRF screen)
[13] = crystal soak 10 mM, DMSO background map
[14] = ligand-bound crystal structure obtained (TRUE)
[15] = site occupied in X-ray crystal structure
[16] = SARS CoV-2 macrodomain HTRF assay, dose-response
[17] = crystal soak concentration 10 mM, DMSO background map
[18] = crystal soak concentration 10 mM, P43 crystals

Row | SMILES | Occupancy difference (refined_occupancy - 2*(1-BDC)) [5] | 1-BDC [5, 7] | Total number of conformations [5] | 2*(1-BDC) (%) [5] [%] | Refined ligand occupancy (%) [5, 8] [%] | PanDDA run, DMSO background map: 1-BDC [5, 9] | PanDDA run, DMSO background map: Hit [5, 9] | PanDDA run, overall: Hit [5, 10] | PanDDA run, overall: Modeling comment [5, 10] | Hill slope [6, 11] | inhibition at 200 µM [6, 12] [%] | X-ray crystal structure [5, 14] | Binding site [5, 15] | Hill slope [6, 16] | further results
1 | O=C1CCCN1Nc1ncnc2[nH]c3cc(F)ccc3c12 [AVI-219, reference compound] |  |  |  |  |  |  |  |  |  |  |  |  |  |  | T1/2 (min), mean ([1]; Mouse microsome stability assay): 26.1 min; CLint (mouse) ([1]; intrinsic clearance from t1/2): 53.1 µl/min/mg protein; Kinetic solubility (uM), mean ([2]; DMSO concentration 5%): 127 µM; Mean solubility ([2]; phosphate-buffered saline pH 7.4, triplicate): 127 µM; Recover Rate (%) [3]: 98%
2 | Nc1ncnc2c1ncn2[C@@H]1O[C@H](COP(=O)(O)OP(=O)(O)OC[C@H]2O[C@@H](O)[C@H](O)[C@@H]2O)[C@@H](O)[C@H]1O.[Na].[Na] [ADP-ribose, reference compound] |  |  |  |  |  |  |  |  |  |  |  |  |  |  | Hill slope [4]: 1.5
3 | CC(CNC(=O)c1ccc2c(c1)CCC(=O)N2)C(=O)O (stereo not shown) [AVI-328] | 0 | 0.11 | 2 | 22 | 22 | 0.11 and 0.1 | TRUE | TRUE | Duplicate, not modeled | 1.3 | 50 |  |  |  | X-ray crystal structure ([5]; TRUE = ligand-bound crystal structure obtained (PDB code given)): TRUE; Binding site ([5]; site of Mac1 occupied in the X-ray crystal structure (Adenosine or Distal)): Adenosine; PanDDA run, DMSO background map: Modeled [5, 9]: TRUE; PanDDA run, overall: Modeled [5, 10]: TRUE; Hill slope ([6]; dose-response): 1.3
4 | CC1(C)C[C@@H](CO)N(c2ncnc3[nH]ccc23)C1.O=C(O)C(F)(F)F [AVI-3704] | 0 | 0.33 | 1 | 66 | 66 |  |  |  |  | 1.1 | 90 | TRUE | Adenosine | 1.1 | PanDDA run, overall: Hit ([5]; crystal soak 10 mM, P43 crystal form): TRUE; PanDDA run, DMSO background map: 1-BDC [5, 13]: 0.33; PanDDA run, DMSO background map: Hit [5, 13]: TRUE; inhibition at 200 µM ([6]; SARS CoV-2 macrodomain HTRF assay, single dose concentration 200 μM, read-out: Average % competition): 90%
5 | CC1CC(C(=O)O)CN(C(=O)CSc2ccc(O)cc2)C1 (stereo not shown) [AVI-334] |  |  |  |  |  | 0.07 | TRUE | TRUE | Weak density, not modeled |  |  |  |  |  | Average % competition ([6]; single dose concentration 200 μM (TS-FrankenROCS series)): 25%
6 | CC(C)(O)C1C2CCCCC2CN1c1ncnc2[nH]ccc12 (stereo not shown) [AVI-4127] |  |  |  | 50 |  |  |  |  |  | 1.3 |  | TRUE | Adenosine | 1.3 | 1-BDC ([5]; PanDDA background density correction, 1-BDC): 0.25; Hit (PanDDA run, DMSO background map) [5, 17]: TRUE; Modeled (PanDDA run, DMSO background map) [5, 17]: TRUE; 1-BDC (PanDDA run, DMSO background map) ([5]; crystal soak concentration 10 mM, DMSO background map, event 1): 0.23 and 0.25; Hit (PanDDA run, overall) [5, 18]: TRUE; Modeled (PanDDA run, overall) [5, 18]: TRUE; Modeling comment (PanDDA run, overall) [5, 18]: Duplicate, not modeled; Refined ligand occupancy (%) ([5]; crystallographic refinement): 60%; Phe132 loop open state ([5]; open state of Phe132 loop seen in the ligand-bound structure): TRUE
